The text below walks through data of patent publication US6858723B1, “Amphiphile cyclodextrins, preparation and use thereof for solubilizing organized systems and incorporating hydrophobic molecules” (Commissariat a l'Energie Atomique, priority 1999, dated 2005).

What all share (type): physicochemical
Data set [1] in a line: neutron diffusion of nanoparticles loaded with hydrophobic compounds. An excerpt: FIG. 7 represents the neutron diffusion spectra obtained with: • the solution of nanoparticles of cyclodextrin according to example 1 and the fatty acid (1:0.5 eq. mol) (spectrum 9); • the solution of nanoparticles of cyclodextrin according to example 1 and the fatty acid (1:1 eg. mol) (spectrum 10); and • the solution of nanoparticles of cyclodextrin alone (spectrum 11).
In this figure, the theoretical spectrum (spectrum 12) simulating spheres has also been represented.
The intensity I(q) is increased. The Intensity I(q) is proportional to the volume of nanoparticles. The presence of additional molecules (fatty acid molecules) in the nanoparticles increases the value of the contrast and therefore the intensity.
The incorporation in mono-6-(cholest-5-en-3α-ylamide)succinylamide-6-deoxy-2,2′,2″,2′″,2″″,2′″″,2″″″,6′,6″,6′″, 6″″,6′″″,6″″″-trideca-O-methyl-cyclomaltoheptaose nanoparticles of the following hydrophobic compounds: • dothiepin (neurotrope), • chloramphenicol (bacteriostatic), • vitamin A, and • esculin (vascular wall tonic), • were also detected by neutron diffusion. References

Data set [2] can be described thus: neutron diffusion of nanoparticle solution. The note with it: 10^−2 mol/l in D2O. The text has this:
The diffusion spectrum obtained from a 10^−2 mol/l solution in D2O of the cyclodextrin derivative in example 1 is represented in FIG. 1 (spectrum 1).
In FIG. 1, the theoretical spectra simulating spheres (spectrum 2), cylinders (spectrum 3) or lamellae (spectrum 4) formed from the cyclodextrin derivative in example 1, at a concentration of 10^−2 mol/l in D2O, are also shown. […] These aggregates are lined on the surface with cyclodextrin cavities available for the inclusion of hydrophobic active molecules, the core being composed of cholesterol groups. The theoretical spectrum simulating spheres gives a mean diameter of […] (50 Å) and a mean number of monomers per nanoparticle of 24.

The nature of data set [3]: static light diffusion of aqueous nanoparticle solutions. As to the method: The mean hydrodynamic diameter of the nanoparticles was measured by quasi-elastic light diffusion. The mean diameter MD value calculated according to the Stokes-Einstein approximation based on the interaction-free perfect sphere model is […] (60 Å). The static light diffusion analysis of aqueous solutions of nanoparticles at different concentrations (2.5.10^−3, 5.10^−3 and 10^−2 mol/l) gives a mean aggregate mass of 43,000 g/mol, which is equivalent to a mean of 24 monomers per nanoparticle.

The nature of data set [4]: cmc by surface tension measurements. As to the method: The cmc of the cyclodextrin in example 1 was determined with surface tension measurements. The value of the cmc is 9.10^−6 mol/l.

Regarding `O=C(N[C@H](CO)[C@H](O)c1ccc([N+](=O)[O-])cc1)C(Cl)Cl` [chloramphenicol], the “incorporation in nanoparticles of the cyclodextrin of example 1” value (“incorporation in nanoparticles” below) in data set [1] was “detected”.

Regarding `CC(CCCCCCCCCCCCCI)CC(=O)O` (stereo not shown) [16-iodo-3-methylhexadecanoic acid], the “incorporation in nanoparticles” value in data set [1] is “marked modifications on the diffusion spectra”.

Consider `CN(C)CC/C=C1\c2ccccc2CSc2ccccc21` [dothiepin], for which the “incorporation in nanoparticles” value in data set [1] is on record as “detected”.

In the case of `O=c1ccc2cc(O[C@@H]3O[C@H](CO)[C@@H](O)[C@H](O)[C@H]3O)c(O)cc2o1` [esculin], the “incorporation in nanoparticles” value in data set [1] is listed as “detected”.

On to “mono-6-(cholest-5-en-3α-ylaamide)succinylamide-6-deoxy-2,2′,2″,2′″,2″″,2′″″,2″″″,6,6′,6″,6′″,6″″,6′″″,6″″″-trideca-O-methyl-cyclomaltoheptaose [example 1]”, for which the shape of aggregates entry in data set [2] (experimental spectrum superimposed with theoretical spectrum of spheres) is “spherical shape”. Besides, the “mean number of monomers per nanoparticle” value in data set [2] (theoretical spectrum simulating spheres) is listed as 24. Besides, in data set [3] (aqueous solutions 2.5.10^−3, 5.10^−3 and 10^−2 mol/l), the mean aggregate mass is recorded as 43,000 g/mol. The “mean monomers per nanoparticle” value in data set [3] (from mean aggregate mass) is recorded as 24. Also, in data set [4], the “critical micellar concentration cmc” value is 9.10^−6 mol/l.

Take vitamin A: the “incorporation in nanoparticles” value in data set [1] is reported as “detected”.
